Biological target: T1, fibrin gels (40 mg/mL fibrinogen, 33 U/mL thrombin) (Homo sapiens, UniProt P02671+P02675+P02679)
T1 construct: purchased Ethicon (Evicel)
T1 sequence (P02671 20-644 isoform P02671-2 limits assumed): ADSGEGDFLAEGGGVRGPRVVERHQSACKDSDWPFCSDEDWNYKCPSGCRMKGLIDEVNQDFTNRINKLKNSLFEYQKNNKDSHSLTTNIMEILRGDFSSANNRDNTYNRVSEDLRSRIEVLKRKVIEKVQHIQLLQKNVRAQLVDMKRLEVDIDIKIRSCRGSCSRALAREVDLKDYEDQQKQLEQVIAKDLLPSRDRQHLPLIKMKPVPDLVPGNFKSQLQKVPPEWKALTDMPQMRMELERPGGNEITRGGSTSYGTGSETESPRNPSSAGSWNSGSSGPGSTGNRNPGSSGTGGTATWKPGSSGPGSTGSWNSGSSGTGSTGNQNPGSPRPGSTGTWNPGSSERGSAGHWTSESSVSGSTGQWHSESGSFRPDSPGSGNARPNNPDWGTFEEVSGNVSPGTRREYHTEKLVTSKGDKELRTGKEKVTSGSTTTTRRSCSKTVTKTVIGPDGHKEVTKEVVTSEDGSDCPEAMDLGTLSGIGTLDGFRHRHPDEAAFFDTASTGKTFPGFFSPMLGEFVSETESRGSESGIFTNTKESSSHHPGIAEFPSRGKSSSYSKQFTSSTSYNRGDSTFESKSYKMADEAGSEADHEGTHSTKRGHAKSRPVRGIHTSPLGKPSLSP
T1 sequence (P02675 45-491 limits assumed): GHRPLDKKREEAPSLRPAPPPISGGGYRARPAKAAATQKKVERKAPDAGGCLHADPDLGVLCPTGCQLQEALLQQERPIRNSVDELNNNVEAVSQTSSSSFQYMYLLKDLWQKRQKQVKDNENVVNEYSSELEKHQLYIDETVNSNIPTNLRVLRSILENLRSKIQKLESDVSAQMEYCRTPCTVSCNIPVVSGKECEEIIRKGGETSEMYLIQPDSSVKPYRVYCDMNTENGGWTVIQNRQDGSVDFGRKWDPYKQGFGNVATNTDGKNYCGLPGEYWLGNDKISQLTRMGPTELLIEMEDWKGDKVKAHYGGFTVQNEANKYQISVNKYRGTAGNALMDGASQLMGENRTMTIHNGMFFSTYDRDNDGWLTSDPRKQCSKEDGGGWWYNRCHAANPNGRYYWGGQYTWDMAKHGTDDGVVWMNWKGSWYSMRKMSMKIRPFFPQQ
T1 sequence (P02679 27-437 isoform P02679-2 limits assumed): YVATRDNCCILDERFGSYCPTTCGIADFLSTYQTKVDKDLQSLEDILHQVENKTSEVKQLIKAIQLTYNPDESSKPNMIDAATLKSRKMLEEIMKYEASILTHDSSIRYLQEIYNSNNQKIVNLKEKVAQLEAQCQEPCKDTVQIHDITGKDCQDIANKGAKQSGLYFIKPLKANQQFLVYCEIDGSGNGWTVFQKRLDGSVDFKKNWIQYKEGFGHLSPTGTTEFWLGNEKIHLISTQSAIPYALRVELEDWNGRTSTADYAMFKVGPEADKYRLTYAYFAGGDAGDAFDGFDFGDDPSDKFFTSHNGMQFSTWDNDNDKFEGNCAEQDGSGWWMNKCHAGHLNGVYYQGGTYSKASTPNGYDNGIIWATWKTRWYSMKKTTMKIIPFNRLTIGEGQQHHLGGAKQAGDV
Test: Transmission electron microscopy of fibrin gel cross sections
Conditions: TEM, 0.12% w/v dye
Method: Both scanning electron microscopy (SEM) and transmission electron microscopy (TEM) were performed to investigate the effect of the chemical additives on fibril formation microstructure. Gels were made with PBS, TB, or EB as described elsewhere (see, e.g., Gandhi et al., 2018 Acta Biomater., 67:134-46) with the following modifications. Briefly, a mixture of 40 mg/mL fibrinogen, 33 U/mL thrombin, and 0.12% w/v dye final concentrations was plated into a custom acetal mold to create the 300 μm sheet. After a 2 hour incubation at 37° C., the gels were hydrated in PBS for a minimum of 15 minutes.
The gels were then fixed overnight in 2.5% paraformaldehyde and 1% glutaraldehyde in 0.1 M phosphate buffer pH 7 containing 1.0 mM MgCl2 and 0.13 mM CaCl2. After fixation, gels were processed for scanning electron microscopy (SEM). Samples for TEM were processed by initially dehydrating the gels, embedding into plastic resin, and sectioned at a thickness of 100 nm. SEM imaging was performed using a Hitachi S-4700 (Hitachi High Technologies; Schaumburg, IL) microscope. Sections processed for TEM were imaged used a JEOL 1400 microscope (JEOL; Peabody, MA).
TEM was then performed to visualize the cross section of the fibrin gels. […] The PBS fibrin gel appears to have larger mesh spaces, with a large range of fibril diameters and orientation. […]

SMILES	largest fibril diameters
Cc1cc(-c2ccc(/N=N/c3ccc4c(S(=O)(=O)O)cc(S(=O)(=O)O)c(N)c4c3O)c(C)c2)ccc1/N=N/c1ccc2c(S(=O)(=O)O)cc(S(=O)(=O)O)c(N)c2c1O [EB, Evans Blue]	40-60 nm
Cc1cc(-c2ccc(/N=N/c3c(S(=O)(=O)O)cc4cc(S(=O)(=O)O)cc(N)c4c3O)c(C)c2)ccc1/N=N/c1c(S(=O)(=O)O)cc2cc(S(=O)(=O)O)cc(N)c2c1O [TB, Trypan Blue]	50-75 nm

Source: patent US20230414826A1, “FIBRIN HYDROGELS” (Mayo Foundation for Medical Education and Research, priority 2020, published 2023)
